# Like-named read-outs stand apart in the source and are kept apart here.
# Assays:
# Brain distribution study = assay type: in vivo, male C57BL/6 mice; conditions: PO 20 mg/kg, male C57BL/6 mice
# Description: Compound KL50 dosing solution: 3.39% DMSO+96.61% (10% HP-β-CD in saline) at 2 mg/mL; • 1) Weigh 17.39 mg of compound KL50 into a clean tube. • 2) Add 0.295 mL DMSO into the tube containing the compound. • 3) Vortex the tube for 3 min and sonicate it for 4 min. • 4) Add 8.400 mL 10% HP-β-CD in saline into the tube and vortex the tube for 3 min. Compound I-1 dosing solution: 3.39% DMSO+96.61% (10% HP-β-CD in saline) at 2 mg/mL; • 1) Weigh 16.86 mg Compound I-1 into a clean tube. • 2) Add 0.286 mL DMSO into the tube containing the compound. • 3) Vortex the tube for 3 min and sonicate it for 4 min. • 4) Add 8.144 mL 10% HP-β-CD in saline into the tube and vortex the tube for 3 min.
# The in-vivo pharmacokinetic and brain distribution study was conducted under the following parameters. Twenty seven C57BL/6 male mice were purchased from Shanghai JiHui Laboratory Animal Co. LTD. Each mouse weighted from 16 g to 17 g. The mice were fasted overnight and fed post 4 hr sampling. Compound KL50 and Compound I-I were administered via oral gavage (PO) at a dose of 20 mg/kg (10 mL/kg). After dosing, sampling was completed at 0.083, 0.167, 0.333, 0.5, 0.75, 1, 2, 4 and 8 hr post dose, with three mice sacrificed at each time point.
# Terminal bleeding for plasma and brain was completed at each time point. Approximately 110 μL blood per time point was collected into a K2EDTA tube via the facial vein. The blood sample was put on wet ice and centrifuged to obtain plasma sample (2000 g, 5 min under 4° C.) within 15 minutes. Plasma samples were acidified with 6 μL of formic acid for every 54 μL of plasma. After blood collection, a mid-line incision was made in the animal's scalp and the skin was retracted. The skull overlying the brain was removed. Then, the whole brain was collected, rinsed with cold saline, dried on filtrate paper, and weighed; and then snap frozen by placing the brain into dry-ice. Plasma samples were stored at approximately −70° C. until analysis. Brain tissue was homogenized with 3 volumes (v/w) of PBS (1% FA) and then analyzed with LC-MS/MS. The concentration of study drug was corrected with a dilution factor of four as following: Brain concentration=brain homogenate conc.×4, assuming 1 g wet brain tissue equals to 1 mL
# [1] = system: LN229 MGMT−/MMR− intracranial tumors; assay: Intracranial tumor study; assay type: in vivo, mouse; conditions: 25 mg/kg IP M-F×1 week as printed
# [2] = system: LN229 MGMT−/MMR+ and MGMT−/MMR− cells; assay: IR alkaline comet assay; assay type: cell-based, human
# Description: IR Alkaline Comet Assay. Assay was performed utilizing the CometAssay Kit (Trevigen) according to the alkaline assay protocol, with the addition of slide irradiation post-lysis. Cells were trypsinized, washed with 1×PBS, added to melted Comet LMAgarose (Trevigen), and spread on Trevigen CometSlides at a density of 1000 cells per sample in 50 μL. Lysis solution (Trevigen) with 10% DMSO was added overnight at 4° C. Slides were removed from lysis buffer and irradiated to 0 or 10 Gy using an XRAD 320 X-Ray System (Precision X-Ray) at 320 kV, 12.5 mA, and 50.0 cm SSD, with a 2 mm Al filter and 20 cm×20 cm collimator. Slides were then placed in alkaline buffer (200 mM NaOH, 1 mM EDTA) for 45 min, followed by electrophoresis in 850 mL alkaline buffer for 45 min at 4° C. Slides were washed and stained with SYBR gold (Invitrogen) per Trevigen assay protocol. Slides were imaged on a Cytation 3 imaging reader (BioTek), and comets were analyzed using CometScore 2.0 software (TriTek).
# We used a well-established comet assay adapted for ICL detection to determine if ICLs were formed in MGMT− cells treated with KL-50 (4a) (FIG. Z3, A and B). In this assay, cells were sequentially exposed to genotoxins and ionizing radiation, and then analyzed by single cell alkaline gel electrophoresis. Attenuation of the IR-induced comet tail is indicative of ICL formation.
# [3] = male, C57BL/6, mouse, brain/plasma, po, 20 mg/kg, N=3, read-out: Brain Concentration/Plasma Concentration, Mean
# [4] = male, C57BL/6, mouse, brain/plasma, po, 20 mg/kg, read-out: Brain Concentration/Plasma Concentration, Individuals
smiles,measurement,setting,value
"NC(=O)c1ncn2c(=O)n(CCF)nnc12 [KL-50, 3-(2-fluoroethyl)-4-oxo-3H,4H-imidazo[4,3-d][1,2,3,5]tetrazine-8-carboxamide]",concentration at 1 hr,"Brain distribution study; male, C57BL/6, mouse, brain, po, 20 mg/kg, 1 hr, read-out: brain Concentration, Individuals",2920 ng/g
same,concentration at 2 hr,"Brain distribution study; male, C57BL/6, mouse, brain, po, 20 mg/kg, N=3, read-out: brain Concentration, Mean",1140 ng/g
same,concentration at 2 hr,"Brain distribution study; male, C57BL/6, mouse, brain, po, 20 mg/kg, read-out: brain Concentration, Individuals",934 ng/g
same,concentration at 4 hr,"Brain distribution study; male, C57BL/6, mouse, brain, po, 20 mg/kg, 4 hr, N=3",270 ng/g
same,concentration at 8 hr,"Brain distribution study; male, C57BL/6, mouse, brain, po, 20 mg/kg, 8 hr, N=3",49.6 ng/g
same,Kp,"Brain distribution study; male, C57BL/6, mouse, brain/plasma, po, 20 mg/kg, AUCbrain/AUCplasma, heading: AUCbrain/AUCplasma",25.1%
same,Kp at 0.083 hr,Brain distribution study; [3],0.0718
same,Kp at 0.083 hr,Brain distribution study; [4],0.0691
same,Kp at 0.167 hr,Brain distribution study; [3],0.136
same,Kp at 0.167 hr,Brain distribution study; [4],0.13
same,Kp at 0.333 hr,Brain distribution study; [3],0.203
same,Kp at 0.333 hr,Brain distribution study; [4],0.191
same,Kp at 0.5 hr,Brain distribution study; [3],0.257
same,Kp at 0.5 hr,Brain distribution study; [4],0.259
same,Kp at 0.75 hr,Brain distribution study; [3],0.318
same,Kp at 0.75 hr,Brain distribution study; [4],0.344
same,Kp at 1 hr,"Brain distribution study; male, C57BL/6, mouse, brain/plasma, po, 20 mg/kg, 1 hr, N=3, read-out: Brain Concentration/Plasma Concentration, Mean",0.296
same,Kp at 1 hr,"Brain distribution study; male, C57BL/6, mouse, brain/plasma, po, 20 mg/kg, 1 hr, read-out: Brain Concentration/Plasma Concentration, Individuals",0.278
same,Kp at 2 hr,Brain distribution study; [3],0.348
same,Kp at 2 hr,Brain distribution study; [4],0.362
same,Kp at 4 hr,"Brain distribution study; male, C57BL/6, mouse, brain/plasma, po, 20 mg/kg, 4 hr, N=3, read-out: Brain Concentration/Plasma Concentration, Mean",0.231
same,Kp at 4 hr,"Brain distribution study; male, C57BL/6, mouse, brain/plasma, po, 20 mg/kg, 4 hr, read-out: Brain Concentration/Plasma Concentration, Individuals",0.174
same,Kp at 8 hr,"Brain distribution study; male, C57BL/6, mouse, brain/plasma, po, 20 mg/kg, 8 hr, N=3, read-out: Brain Concentration/Plasma Concentration, Mean",0.233
same,Kp at 8 hr,"Brain distribution study; male, C57BL/6, mouse, brain/plasma, po, 20 mg/kg, 8 hr, read-out: Brain Concentration/Plasma Concentration, Individuals",0.28
same,Cmax,"Brain distribution study; mouse, brain",3690 ng/g
same,MRT inf,"Brain distribution study; mouse, brain",1.57 h
same,Tmax,"Brain distribution study; mouse, brain",0.333 h
same,half-life,"Brain distribution study; mouse, brain",1.18 h
same,intracranial tumor growth by BLI (in words),[1],effective
same,"effect on IR-induced comet tail, ICL detection (in words)","[2]; MGMT−/MMR+ cells, 200 μM for 24 h, 10 Gy",reduced the % DNA in the tail to levels similar to those seen for 0.1 μM MMC
same,comet tailing in the absence of IR (in words),"[2]; MGMT−/MMR+ cells, TMZ and KL-50 200 μM, MMC 0.1 or 50 μM",induced tailing
same,DNA damage in unirradiated samples (in words),"[2]; MGMT−/MMR− cells, 200 μM, 2, 8 or 24 h, 0 Gy","induced maximal damage at 2 h, which decreased over time"
same,"rate of ICL formation, DNA mobility after IR (in words)","[2]; MGMT−/MMR− cells, 200 μM, 2, 8 or 24 h, 10 Gy",time-dependent decrease in DNA mobility
